The values that follow come from US11976056B2, “Substituted alkoxypyridinyl indolsulfonamides” (UCB Pharma GmbH, priority 2018, dated 2024).

The structures appear in SMILES notation.

One data set deals with CYP1A2. Nature of the data set: CYP 450-1A2 induction assay in cryopreserved human hepatocytes. The class given is in vitro ADME. The following applies: 10 μM test compound, 72 h, compared to vehicle control. On the procedure: Cryopreserved human hepatocytes from a single donor are seeded on a 96 well collagen coated plate so that the final seeding density is 0.1×10^6 cells/well (final volume per well 0.1 mL). The cells are then incubated in seeding medium at 37° C., 95% humidity, 5% CO2 to allow the cells to attach. After 4 h, the seeding medium is replaced with 0.1 mL of pre warmed serum free Williams E medium containing 100 IU/mL penicillin, 100 μg/mL streptomycin, 10 μg/mL insulin, 2 mM L glutamine and 0.1 μM hydrocortisone.
The next day, cells are dosed with test compound in assay medium (final test compound concentration 10 μM; final DMSO concentration 0.1%). Positive control inducers, omeprazole (50 μM) for CYP1A2, phenobarbital (500 μM) for CYP2B6 and rifampicin (10 μM) for CYP3A4, are incubated alongside the test compound. Negative control wells are included where the test compound is replaced by vehicle solvent (0.1% DMSO in assay medium). Each test compound is dosed in triplicate. The cells are exposed to the solutions for 72 h with fresh solution added every 24 h.
For catalytic activity determination, a solution of the probe substrates, phenacetin (final concentration 25 μM), bupropion (final concentration 100 μM) and midazolam (final concentration 2.5 μM) is prepared in pre warmed assay medium. At the end of the 72 h exposure period, the media is replaced with the cocktail of probe substrates. The hepatocytes are incubated for 30 min. An aliquot is removed at the end of the incubation period and placed into methanol containing internal standard in a 1:2 ratio. The samples are centrifuged at 2500 rpm at 4° C. for 20 min. An aliquot of supernatant is diluted with deionised water and levels of acetaminophen, hydroxybupropion and 1 hydroxymidazolam are quantified using Cyprotex generic LC MS/MS methods.
The hepatocytes are solubilised in 0.1M sodium hydroxide at room temperature and protein content in each well determined using Pierce™ BCA Protein Assay Kit (Thermo Scientific) using bovine serum albumin as a standard.
For catalytic activity determination, the concentration of metabolite formed at each test compound replicate is converted to CYP activity and normalised to protein. The fold change is determined by comparing to the vehicle control wells. The fold change observed at each test compound concentration is expressed as a percentage of the positive control compounds for each P450 isoform.
With `O=S(=O)(Nc1nc(F)c(OCCF)cc1F)c1c[nH]c2cc(Cl)ccc12` [Comparative Example 1, 6-chloro-N-[3,6-difluoro-5-(2-fluoroethoxy)pyridin-2-yl]-1H-indole-3-sulfonamide, reference compound], the “induction of CYP1A2” value came out at 16 fold. Take `O=S(=O)(Nc1nc(F)c(OCCF)cc1F)c1c[nH]c2c(Cl)c(Cl)ccc12` [Example I-1, 6,7-dichloro-N-[3,6-difluoro-5-(2-fluoroethoxy)pyridin-2-yl]-1H-indole-3-sulfonamide]: the “induction of CYP1A2” value was “no CYP1A2 induction”. Turning to `O=S(=O)(Nc1nc(F)c(OCCF)cc1F)c1c[nH]c2c(OC3CC3)c(Cl)ccc12` [Example I-2, 6-chloro-7-cyclopropyloxy-N-[3,6-difluoro-5-(2-fluoroethoxy)pyridin-2-yl]-1H-indole-3-sulfonamide], the “induction of CYP1A2” value is recorded as “no CYP1A2 induction”. For `O=S(=O)(Nc1nc(F)c(OCCF)cc1F)c1c[nH]c2c(C(F)F)c(Cl)ccc12` [Example I-3, 6-chloro-N-[3,6-difluoro-5-(2-fluoroethoxy)pyridin-2-yl]-7-(difluoromethyl)-1H-indole-3-sulfonamide], the “induction of CYP1A2” value is “no CYP1A2 induction”. As for `O=S(=O)(Nc1nc(F)c(OCCF)cc1F)c1c[nH]c2c(C3CC3)c(Cl)ccc12` [Example I-12, 6-chloro-7-cyclopropyl-N-[3,6-difluoro-5-(2-fluoroethoxy)pyridin-2-yl]-1H-indole-3-sulfonamide], the “induction of CYP1A2” value is given as “no CYP1A2 induction”.

The target in a further data set is T1, GPR17 (Homo sapiens, UniProt Q13304).
Assay: not given
The note with it: activating ligands for GPR17; cited from earlier work.
Target sequence in this assay (Q13304 whole entry, species assumed): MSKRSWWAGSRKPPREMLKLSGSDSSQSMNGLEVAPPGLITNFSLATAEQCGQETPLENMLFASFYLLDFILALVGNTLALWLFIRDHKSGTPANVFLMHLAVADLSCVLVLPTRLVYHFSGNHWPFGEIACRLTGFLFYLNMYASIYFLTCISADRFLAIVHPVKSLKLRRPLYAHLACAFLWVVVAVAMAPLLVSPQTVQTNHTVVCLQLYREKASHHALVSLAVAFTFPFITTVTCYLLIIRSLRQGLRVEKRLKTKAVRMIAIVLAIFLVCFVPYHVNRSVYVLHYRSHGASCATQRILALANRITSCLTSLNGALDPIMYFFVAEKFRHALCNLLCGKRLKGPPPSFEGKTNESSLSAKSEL
For the molecule `NCC(=O)CCC(=O)O` [Example 5-ALA, 5 amino levulinic acid], the “amounts needed in the assays” value is reported as “three digit micromolar range”. Turning to `NCc1[nH]cc(CCC(=O)O)c1CC(=O)O` [PBG, porphobilinogen], the “amounts needed in the assays” value is “mM range”.

The target of another data set is T1, GPR17. As to the kind of experiment: cAMP accumulation functional assay (HTRF, Schild analysis vs MDL29,951). The class given is cell-based. On the set-up: host or cells: Flp-In T-REx CHO. The following applies: CHO hGPR17, Schild analysis against MDL29,951, activity range; read-out: cAMP assay pA2 (converted). As to the method: Flp-In T-REx CHO cells stably expressing human GPR17 receptor (CHO hGPR17) from Evi Kostenis' lab (Bonn University, Germany) were cultured at 37° C. in a humidified atmosphere of 5% CO2. Cells were grown in DMEM with Nutrient Mixture F-12 supplemented with hygromycin B (500 μg/ml) and blasticidin (30 μg/ml). Expression from the Flp-In locus was induced by treatment with doxycycline (1 μg/ml) for 16-20 h prior assays.
GPR17 activation can also recruit Gi-type G-protein signaling, resulting in a decrease of intracellular cyclic adenosine monophosphate (cAMP). Intracellular cAMP changes can be measured using the HTRF cAMP dynamic assay kit from CisBio (Codolet, France). Using homogenous time-resolved fluorescence technology (HTRF), the assay is based on competition between native cAMP produced by cells and cAMP labelled with the dye d2. The tracer binding was determined by an anti-cAMP antibody labeled with cryptate.
CHO hGPR17 were detached with PBS containing EDTA and dispatched in black 384-well plates with 5,000 cells per well. Cells were first incubated for 30 minutes at room temperature in HBSS Hepes (pH 7.4) containing vehicle or varying concentrations of test GPR17 antagonist/inverse agonist compounds. Then, a dose response curve of MDL29,951 GPR17 agonist (typically from 10^−5 M to 10^−10 m) was added on vehicle and on each test GPR17 antagonist/inverse agonist compound concentration in a final volume of 20 μL HBSS Hepes buffer (pH 7.4) containing 1% DMSO, 5 μM forskolin and 0.1 mM IBMX. After 60 minutes incubation at room temperature, the reaction is terminated and the cells lysed by adding the d2 detection reagent and the cryptate reagent in 10 μL lysis buffer each according to manufacturer's instructions. After 60 minutes incubation, changes in cAMP concentrations are measured according to manufacturer's instructions using an Envision plate reader with laser excitation. All incubations were performed in duplicate. Data was analyzed using GraphPad Prism software using the 4-parameter logistic equation to measure MDL29,951 pEC50s in absence and presence of GPR17 antagonist/inverse agonist test compounds. Dose ratio (DR) were plotted against antagonist concentrations and Schild analysis provided estimated affinity pA2 of GPR17 antagonist/inverse agonist test compounds.
Target sequence in this assay (Q13304 whole entry): as the sequence (Q13304 whole entry, species assumed) above
In the case of `O=S(=O)(Nc1nc(F)c(OCCF)cc1F)c1c[nH]c2c(Cl)c(Cl)ccc12` [Example I-1, 6,7-dichloro-N-[3,6-difluoro-5-(2-fluoroethoxy)pyridin-2-yl]-1H-indole-3-sulfonamide], the Kb was ≤ 3.16 nM.

Take `O=S(=O)(Nc1nc(F)c(OCCF)cc1F)c1c[nH]c2c(OC3CC3)c(Cl)ccc12` [Example I-2, 6-chloro-7-cyclopropyloxy-N-[3,6-difluoro-5-(2-fluoroethoxy)pyridin-2-yl]-1H-indole-3-sulfonamide]: the Kb was ≤ 3.16 nM. Turning to `O=S(=O)(Nc1nc(F)c(OCCF)cc1F)c1c[nH]c2c(C(F)F)c(Cl)ccc12` [Example I-3, 6-chloro-N-[3,6-difluoro-5-(2-fluoroethoxy)pyridin-2-yl]-7-(difluoromethyl)-1H-indole-3-sulfonamide], the Kb is ≤ 3.16 nM.

Turning to `O=S(=O)(Nc1ncc(OCCF)cc1F)c1c[nH]c2c(Cl)c(Cl)ccc12` [Example I-5, 6,7-dichloro-N-[3-fluoro-5-(2-fluoroethoxy)pyridin-2-yl]-1H-indole-3-sulfonamide], the Kb is 3.16 to 31.6 nM. As for `O=S(=O)(Nc1ncc(OCC(F)F)cc1F)c1c[nH]c2c(Cl)c(Cl)ccc12` [Example I-6, 6,7-dichloro-N-[5-(2,2-difluoroethoxy)-3-fluoropyridin-2-yl]-1H-indole-3-sulfonamide], the Kb was 3.16 to 31.6 nM.

`O=S(=O)(Nc1ncc(OCCF)cc1F)c1c[nH]c2c(C(F)F)c(Cl)ccc12` [Example I-7, 6-chloro-7-(difluoromethyl)-N-[3-fluoro-5-(2-fluoroethoxy)pyridin-2-yl]-1H-indole-3-sulfonamide]: the Kb is 3.16 to 31.6 nM. With `O=S(=O)(Nc1ncc(OCCF)cc1F)c1c[nH]c2c(F)c(C(F)F)ccc12` [Example I-8, 6-(difluoromethyl)-7-fluoro-N-[3-fluoro-5-(2-fluoroethoxy)pyridin-2-yl]-1H-indole-3-sulfonamide], the Kb was > 31.6 nM. As for `O=S(=O)(Nc1nc(F)c(OCCF)cc1F)c1c[nH]c2c(F)c(Cl)ccc12` [Example I-10, 6-chloro-N-[3,6-difluoro-5-(2-fluoroethoxy)pyridin-2-yl]-7-fluoro-1H-indole-3-sulfonamide], the Kb was ≤ 3.16 nM. Turning to `O=S(=O)(Nc1nc(F)c(OCC(F)F)cc1F)c1c[nH]c2c(F)c(Cl)ccc12` [Example I-11, 6-chloro-N-[5-(2,2-difluoroethoxy)-3,6-difluoropyridin-2-yl]-7-fluoro-1H-indole-3-sulfonamide], the Kb is ≤ 3.16 nM. For the molecule `O=S(=O)(Nc1nc(F)c(OCCF)cc1F)c1c[nH]c2c(C3CC3)c(Cl)ccc12` [Example I-12, 6-chloro-7-cyclopropyl-N-[3,6-difluoro-5-(2-fluoroethoxy)pyridin-2-yl]-1H-indole-3-sulfonamide], the Kb is 3.16 to 31.6 nM. Turning to `COc1nc(NS(=O)(=O)c2c[nH]c3c(Cl)c(Cl)ccc23)c(F)cc1OCC(F)F` [Example I-13, 6,7-dichloro-N-[5-(2,2-difluoroethoxy)-3-fluoro-6-methoxypyridin-2-yl]-1H-indole-3-sulfonamide], the Kb was ≤ 3.16 nM. As for `O=S(=O)(Nc1ncc(OCC(F)F)cc1F)c1c[nH]c2c(C(F)F)c(Cl)ccc12` [Example I-14, 6-chloro-N-[5-(2,2-difluoroethoxy)-3-fluoropyridin-2-yl]-7-(difluoromethyl)-1H-indole-3-sulfonamide], the Kb was 3.16 to 31.6 nM. As for `COc1nc(NS(=O)(=O)c2c[nH]c3c(C(F)F)c(Cl)ccc23)c(F)cc1OCC(F)F` [Example I-15, 6-chloro-N-[5-(2,2-difluoroethoxy)-3-fluoro-6-methoxypyridin-2-yl]-7-(difluoromethyl)-1H-indole-3-sulfonamide], the Kb was ≤ 3.16 nM. Turning to `COc1cc(OC(F)F)cnc1NS(=O)(=O)c1c[nH]c2c(Cl)c(Cl)ccc12` [Example I-16, 6,7-dichloro-N-[5-(difluoromethoxy)-3-methoxypyridin-2-yl]-1H-indole-3-sulfonamide], the Kb is ≤ 3.16 nM. With `COc1cc(OC(F)F)cnc1NS(=O)(=O)c1c[nH]c2c(C(F)F)c(Cl)ccc12` [Example I-17, 6-chloro-N-[5-(difluoromethoxy)-3-methoxypyridin-2-yl]-7-(difluoromethyl)-1H-indole-3-sulfonamide], the Kb was 3.16 to 31.6 nM. As to `O=S(=O)(Nc1nc(F)c(OCCF)cc1F)c1c[nH]c2c(OC(F)(F)F)c(Cl)ccc12` [Example I-18, 6-chloro-N-[3,6-difluoro-5-(2-fluoroethoxy)pyridin-2-yI]-7-(trifluoromethoxy)-1H-indole-3-sulfonamide], the Kb was 3.16 to 31.6 nM. Take `O=S(=O)(Nc1ncc(OCC(F)F)cc1F)c1c[nH]c2c(F)c(C(F)F)ccc12` [Example I-19, N-[5-(2,2-difluoroethoxy)-3-fluoropyridin-2-yl]-6-(difluoromethyl)-7-fluoro-1H-indole-3-sulfonamide]: the Kb was > 31.6 nM. On the same count and under the same terms, the figure for `COc1nc(NS(=O)(=O)c2c[nH]c3c(Cl)c(C(F)F)ccc23)c(F)cc1OCC(F)F` [Example I-20, 7-chloro-N-[5-(2,2-difluoroethoxy)-3-fluoro-6-methoxypyridin-2-yl]-6-(difluoromethyl)-1H-indole-3-sulfonamide] is ≤ 3.16 nM; for `COc1cc(OCC(F)F)cnc1NS(=O)(=O)c1c[nH]c2c(Cl)c(Cl)ccc12` [Example I-21, 6,7-dichloro-N-[5-(2,2-difluoroethoxy)-3-methoxypyridin-2-yl]-1H-indole-3-sulfonamide] it is 3.16 to 31.6 nM.

`COc1nc(NS(=O)(=O)c2c[nH]c3c(F)c(Cl)ccc23)c(F)cc1OCC(F)F` [Example I-22, 6-chloro-N-[5-(2,2-difluoroethoxy)-3-fluoro-6-methoxypyridin-2-yl]-7-fluoro-1H-indole-3-sulfonamide]: the Kb was ≤ 3.16 nM. For the molecule `COc1nc(NS(=O)(=O)c2c[nH]c3c(F)c(Cl)ccc23)c(F)cc1OCCOC(F)F` [Example I-23, 6-chloro-N-[5-[2-(difluoromethoxy)ethoxy]-3-fluoro-6-methoxypyridin-2-yl]-7-fluoro-1H-indole-3-sulfonamide], the Kb was ≤ 3.16 nM.
